Test results as given in PMC10575836, “Elevated acetate kinase (ackA) gene expression, activity, and biofilm formation observed in methicillin-resistant strains of Staphylococcus aureus (MRSA)” (Journal of Genetic Engineering & Biotechnology, 2023).

Target: T1, recombinant ackA (S. aureus ATCC12600 acetate kinase) (Staphylococcus aureus, UniProt Q8NW53)
T1 construct: full-length, His-6 tag from pQE 30 (Sal I/Hind III), clone PSackA, expressed in E. coli DH5alpha, nickel column, 44 kDa on SDS-PAGE
T1 sequence (Q8NW53 1-400): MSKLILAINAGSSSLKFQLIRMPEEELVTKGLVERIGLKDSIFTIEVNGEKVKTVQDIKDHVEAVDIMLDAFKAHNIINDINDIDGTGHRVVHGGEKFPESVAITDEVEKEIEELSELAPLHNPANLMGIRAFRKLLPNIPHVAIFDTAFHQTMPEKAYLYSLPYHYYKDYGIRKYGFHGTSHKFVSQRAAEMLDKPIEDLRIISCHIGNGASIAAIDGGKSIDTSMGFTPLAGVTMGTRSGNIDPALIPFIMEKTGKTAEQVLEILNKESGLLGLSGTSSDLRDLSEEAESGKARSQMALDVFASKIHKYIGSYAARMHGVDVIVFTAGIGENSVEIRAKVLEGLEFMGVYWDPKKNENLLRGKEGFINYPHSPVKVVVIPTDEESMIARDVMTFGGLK
Test: coupled pyruvate kinase / lactate dehydrogenase assay, NADH at […] nm
Format: biochemical
Conditions: 2 mM potassium acetate, 1.5 mM ATP, 2 mM MgCl2, 100 mM Tris-HCl pH 7.3

CC(=O)O [potassium acetate]
coupled pyruvate kinase / lactate dehydrogenase assay, NADH at 340 nm: Assays were initiated by the addition of either the cytosolic fraction or pure recombinant ackA
